From US20130296346A1, “DIPHENYL-AMINE DERIVATIVES: USES, PROCESS OF SYNTHESIS AND PHARMACEUTICAL COMPOSITIONS” (Faes Farma, S.A., priority 2010, published 2013)

System: colorectal cancer cells from patients with Kras mutation
Experiment: Mutated Kras colon cancer orthotopic animal model
Assay type: in vivo, mice
Conditions: compared with vehicle control, FIG. 4A
Description: Using an animal model based on colorectal cancer cells from patients with Kras mutation, implanted on mice in the colon area (Yao, M. Cyclooxygenase-2 selective inhibition with NS-398 suppresses proliferation and invasiveness and delays liver metastasis in colorectal cancer. Br. J. Cancer, 2004 Feb. 9; 90(3):712-9), the effects of Compound 3 were tested.

Fc1ccc(CNCCCC=C(c2ccccc2)c2ccccc2)cc1 [Compound 3, (5,5-diphenyl-pent-4-enyl)-(4-fluoro-benzyl)-amine hydrocloride]
tumour volume of human colorectal cancer: clear reduction effect of the tumour volume
